According to PubChem BioAssay (NCI):
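Grown in 96-well plates, cells were treated for 48 hours with each compound at five concentrations. Insufficient inhibition: endpoint recorded as highest concentration tested. TGI marks complete inhibition of growth.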

What follows are compounds tested on MDA-MB-231 breast (assay: growth of human tumour cells (NCI), 48 h).

Row | SMILES | TGI [µM]
1 | Cc1ccc(-n2cnc3c(N)nc(N)nc32)cc1 | > 100
2 | CNc1c2cccc(C)c2nc2c(C(=O)NCCN(C)C)cccc12 | 0.274
3 | O=c1c(C=Nc2ccccc2Cl)c(O)n(-c2ccccc2)c(=O)n1-c1ccccc1 | > 100
4 | CCOC(=O)NNC(=O)C1CSC(c2ccccc2)N1C(C)=O (configuration not stated) | > 100
5 | CC(C)(C)O/C=C1/C(=O)OC2C[C@@H](O[Si](C)(C)C(C)(C)C)CC12 (some centres not stated) | > 100
6 | COc1ccc2nc3c([N+](=O)[O-])ccc4c3c(c2c1)N=CN4CCCN(C)C | 8.27
7 | O=C1CC(=O)NC(=NN2C(=O)/C(=C/C(=O)c3ccco3)N=C2c2ccccc2)N1 | > 100

What follows are compounds tested on MDA-MB-435 (assay: growth of human tumour cells (NCI), 48 h).

Row | SMILES | TGI [µM]
8 | Cc1oc2c(c1C)S(=O)(=O)C(C#N)C(c1ccccc1)N2 (configuration not stated) | > 100
9 | CC(=O)Oc1cc2c(n(C)c1=O)-c1ccccc1C2 | > 100
10 | CN(C)C=C1C(=O)c2c(Br)sc(Br)c2C1=O | 29.5
11 | CCOC(=O)C(C(=O)OCC)=C1NC2(c3ccccc3Nc3ccc(C)cc32)C(C#N)S1 (configuration not stated) | 23.5
12 | OC(CCN1CCCCC1)(c1ccccc1)c1ccccc1 | > 100
13 | CC(C)(C)[Si](C)(C)O[C@@H](C(=O)OC1C=CCCC1)[C@@H](NC(=O)c1ccccc1)c1ccccc1 (some centres not stated) | > 100
14 | O=C(Nc1cccc2ccccc12)Nn1cnnc1 | > 100
15 | Cc1oc2c(c1C)S(=O)(=O)C(C#N)=C(c1ccccc1)N2 | > 100
16 | Cc1ccc2c(c1)C(=O)/C(=N/Nc1ccc(Cl)cc1)CCO2 | > 100
17 | CN(C)c1ccc(/C=N\NC(=O)c2ccccc2Nc2ccccc2C(=O)N/N=C/c2ccc(N(C)C)cc2)cc1 | > 100
18 | CC(=O)O[C@@H]1CC[C@@]2(C)C(CC[C@H]3[C@@H]4CC[C@H]([C@H](C)CCc5nc6ccc(C)cc6[nH]5)[C@@]4(C)CC[C@@H]32)C1 (some centres not stated) | > 100
19 | C=C1C(=O)OC2/C=C(\CO)C3OC3C3OC3(C)CC(OC(=O)/C(=C/C)CO)C12 (configuration not stated) | > 100
20 | Cc1csc2nc3c(cnn3C)c(=S)n12 | > 100
21 | C/C1=C/C(C)CC(C)OC(=O)C(C)NC(=O)C(Cc2ccc(O)c(I)c2)N(C)C(=O)CNC(=O)C(C)C1 (configuration not stated) | 16.6
22 | Cc1ccc(-n2cnc3c(N)nc(N)nc32)cc1 | > 100
23 | CNc1c2cccc(C)c2nc2c(C(=O)NCCN(C)C)cccc12 | 0.34
24 | O=c1c(C=Nc2ccccc2Cl)c(O)n(-c2ccccc2)c(=O)n1-c1ccccc1 | > 100
25 | CCOC(=O)NNC(=O)C1CSC(c2ccccc2)N1C(C)=O (configuration not stated) | > 100
26 | CC(C)(C)O/C=C1/C(=O)OC2C[C@@H](O[Si](C)(C)C(C)(C)C)CC12 (some centres not stated) | > 100
27 | COc1ccc2nc3c([N+](=O)[O-])ccc4c3c(c2c1)N=CN4CCCN(C)C | 20.1
28 | O=C1CC(=O)NC(=NN2C(=O)/C(=C/C(=O)c3ccco3)N=C2c2ccccc2)N1 | > 100

Each compound was assayed on MOLT-4 leukemia (assay: growth of human tumour cells (NCI), 48 h).

Row | SMILES | TGI [µM]
29 | Cc1oc2c(c1C)S(=O)(=O)C(C#N)C(c1ccccc1)N2 (configuration not stated) | 65.5
30 | CC(=O)Oc1cc2c(n(C)c1=O)-c1ccccc1C2 | > 100
31 | COc1ccc2cc(Oc3ccc(Cl)cc3)c(=O)oc2c1 | > 100
32 | CN(C)C=C1C(=O)c2c(Br)sc(Br)c2C1=O | > 100
33 | CCN(CC)C(=C(C(Cl)=C(Cl)Cl)[N+](=O)[O-])N(CC)CC | > 100
34 | CCOC(=O)C(C(=O)OCC)=C1NC2(c3ccccc3Nc3ccc(C)cc32)C(C#N)S1 (configuration not stated) | 5.76
35 | COC(=O)Nc1nc2ccc(S(=O)(=O)NC(CC(C)C)C(=O)OC)cc2[nH]1 (configuration not stated) | 29.2
36 | OC(CCN1CCCCC1)(c1ccccc1)c1ccccc1 | > 100
37 | CC(C)(C)[Si](C)(C)O[C@@H](C(=O)OC1C=CCCC1)[C@@H](NC(=O)c1ccccc1)c1ccccc1 (some centres not stated) | 39.3
38 | O=C(Nc1cccc2ccccc12)Nn1cnnc1 | > 100
39 | Cc1oc2c(c1C)S(=O)(=O)C(C#N)=C(c1ccccc1)N2 | > 100
40 | Cc1ccc2c(c1)C(=O)/C(=N/Nc1ccc(Cl)cc1)CCO2 | > 100
41 | CN(C)c1ccc(/C=N\NC(=O)c2ccccc2Nc2ccccc2C(=O)N/N=C/c2ccc(N(C)C)cc2)cc1 | > 100
42 | CC(=O)O[C@@H]1CC[C@@]2(C)C(CC[C@H]3[C@@H]4CC[C@H]([C@H](C)CCc5nc6ccc(C)cc6[nH]5)[C@@]4(C)CC[C@@H]32)C1 (some centres not stated) | > 100
43 | C=C1C(=O)OC2/C=C(\CO)C3OC3C3OC3(C)CC(OC(=O)/C(=C/C)CO)C12 (configuration not stated) | 84.3
44 | Cc1csc2nc3c(cnn3C)c(=S)n12 | > 100
45 | C/C1=C/C(C)CC(C)OC(=O)C(C)NC(=O)C(Cc2ccc(O)c(I)c2)N(C)C(=O)CNC(=O)C(C)C1 (configuration not stated) | > 52.7
46 | Cc1ccc(-n2cnc3c(N)nc(N)nc32)cc1 | > 100
47 | CNc1c2cccc(C)c2nc2c(C(=O)NCCN(C)C)cccc12 | 0.306
48 | CCC(Sc1cc(Cl)c(C)cc1S(=O)(=O)Nc1nc(N)nc(N(C)C)n1)C(=O)O (configuration not stated) | > 10
49 | O=c1c(C=Nc2ccccc2Cl)c(O)n(-c2ccccc2)c(=O)n1-c1ccccc1 | > 100
50 | CCOC(=O)NNC(=O)C1CSC(c2ccccc2)N1C(C)=O (configuration not stated) | > 100
51 | COc1ccc2nc3c([N+](=O)[O-])ccc4c3c(c2c1)N=CN4CCCN(C)C | 0.757
52 | O=C1CC(=O)NC(=NN2C(=O)/C(=C/C(=O)c3ccco3)N=C2c2ccccc2)N1 | 60.7

Each compound was assayed on NCI-H226 lung (assay: growth of human tumour cells (NCI), 48 h).

Row | SMILES | TGI [µM]
53 | Cc1oc2c(c1C)S(=O)(=O)C(C#N)C(c1ccccc1)N2 (configuration not stated) | > 100
54 | CC(=O)Oc1cc2c(n(C)c1=O)-c1ccccc1C2 | > 100
55 | COc1ccc2cc(Oc3ccc(Cl)cc3)c(=O)oc2c1 | > 100
56 | CN(C)C=C1C(=O)c2c(Br)sc(Br)c2C1=O | 33.3
57 | CCN(CC)C(=C(C(Cl)=C(Cl)Cl)[N+](=O)[O-])N(CC)CC | > 100
